From patent publication US6201006A, “Aromatic amidine derivatives useful as selective thrombin inhibitors” (C & C Research Laboratories, priority 1996, dated 2001) come the findings set out here.

This assay deals with T1, human thrombin (Homo sapiens, UniProt P00734).
T1 construct: purchased Sigma T-6759
The assay can be described thus: Inhibitory activity for thrombin (chromogenic substrate hydrolysis, 405 nm). The format is biochemical. To be noted: for IC50: human thrombin, 20 min, pH 8.0, N-benzoyl-Phe-Val-Arg-p-nitroanilide; for Selectivity (trypsin/thrombin): IC50 for trypsin divided by IC50 for thrombin. The procedure: 20 μl of each compound of the present invention was dissolved in 50% methanol in various concentrations and then added to each well of a microplate, to each of which 160 μl of the reaction medium containing 125 mM NaCl, 50 mM Tris-HCl (pH 8.0) and 2 mM synthetic substrate (N-benzoyl-Phe-Val-Arg-p-nitroanilide, Sigma B-7632) were added. 20 μl of human thrombin solution (5 units/ml, Sigma T-6759, manufactured by Sigma Co.) containing 0.1% bovine serum albumin was added to each well to initiate the enzymatic reaction. After 20 minutes, the hydrolysis of substrate was determined by measuring the absorbance at 405 nm. […] The selectivity index was calculated by dividing the IC50 value for trypsin by the IC50 value for thrombin. The thrombin inhibitory activity and the trypsin inhibitory activity for the compound of the present invention are shown in the following Table 2.

The compound `CCn1c(CC[C@@H]2CCCN2C(=O)C2CCCNC2)cc2ccc(C(=N)N)cc21` (stereo partly drawn) [Compound 194, 1-ethyl-2-[2-[(S)-1-[(3-piperidinyl)carbonyl]pyrrolidin-2-yl]ethyl]indole-6-carboxamidine] registered an IC50 of 31.7 nM.

Compound `CCn1c(CC[C@@H]2CCCN2C(=O)[C@H]2CCC(=O)N2CC(N)=O)cc2ccc(C(=N)N)cc21` [Compound 187, 1-ethyl-2-[2-[(S)-1-[[(R)-1-(carbamoylmethyl)-5-oxo-pyrrolidin-2-yl]carbonyl]pyrrolidin-2-yl]ethyl]indole-6-carboxamidine] returned an IC50 of 25.6 nM.

In turn, `CCn1c(CCC2CCCN2C(=O)C2CCCN2C(CC(=O)O)C(=O)O)cc2ccc(C(=N)N)cc21` [Compound 123, 1-[(R)-2-[[(S)-2-[2-(6-amidino-1-ethyl-indol-2-yl)ethyl]pyrrolidinyl]carbonyl]pyrrolidinyl]ethane-1,2-dicarboxylic acid] returned a half-maximal inhibitory concentration (IC50) of 32.9 nM.

Regarding `CCOC(=O)CN(C1CC1)C(C)C(=O)N1CCC[C@H]1CCc1cc2ccc(C(=N)N)cc2n1CC` (stereo partly drawn) [Compound 64, ethyl 2-[[2-[(S)-2-[2-(6-amidino-1-ethylindol-2-yl)ethyl]pyrrolidinyl]-1-methyl-2-oxoethyl]cyclo-propylamino]acetate], the “Selectivity (trypsin/thrombin)” value is given as 22.9 and the IC50 was 15.2 nM.

With `CCOC(=O)CCCCCN1CCC[C@@H]1C(=O)N1CCC[C@H]1CCc1cc2ccc(C(=N)N)cc2n1CC` [Compound 130, ethyl 6-[(R)-2-[[(S)-2-[2-(6-amidino-1-ethylindol-2-yl)-ethyl]pyrrolidinyl]carbonyl]pyrrolidinyl]hexanoate], the IC50 turned out to be 36.5 nM.

`CCn1c(CC[C@@H]2CCCN2C(=O)[C@H]2CCCN2CC(=O)NC2CC2)cc2ccc(C(=N)N)cc21` [Compound 115, 1-ethyl-2-[2-[(S)-1-[[(R)-1-[(N-cyclopropylcarbamoyl)methyl]pyrrolidin-2-yl]carbonyl]pyrrolidin-2-yl]-ethyl]indole-6-carboxamidine] displayed an IC50 of 31.8 nM.

In turn, `CCn1c(CC[C@@H]2CCCN2C(=O)[C@H](NS(C)(=O)=O)c2ccccc2)cc2ccc(C(=N)N)cc21` [Compound 37, 1ethyl-2-[2-[(S)-1-((R)-2-methylsulfonylamino-2-phenylacetyl)pyrrolidin-2-yl]ethyl]indole-6-carboxamidine] came in with a half-inhibitory concentration (IC50) of 5.4 nM.

As to `CCOC(=O)CC(=O)N1CCC[C@@H]1C(=O)N1CCC[C@H]1CCc1cc2ccc(C(=N)N)cc2n1CC` [Compound 174, ethyl 3-[(R)-2-[[(S)-2-[2-(6-amidino-1-ethylindol-2-yl)ethyl]pyrrolidinyl]carbonyl]pyrrolidinyl]-3-oxopropanoate], the “Selectivity (trypsin/thrombin)” value was 25.7 and 16.2 nM corresponded to half-maximal inhibition (IC50).

`CCn1c(CC[C@@H]2CCCN2C(=O)C2CCCCN2CC(=O)OC)cc2ccc(C(=N)N)cc21` (stereo partly drawn) [Compound 192, methyl-2-[2-[[(S)-2-[2-(6-amidino-1-ethylindol-2-yl)ethyl]pyrrolidinyl]carbonyl]piperidinyl]acetate] registered an IC50 of 33.8 nM.

As to `CCn1c(CC[C@@H]2CCCN2C(=O)[C@H]2CCCN2)cc2ccc(C(=N)N)cc21` [Compound 83], the IC50 was 30.9 nM.

For the compound `CCn1c(CC[C@@H]2CCCN2C(=O)[C@H](NCC(N)=O)c2ccccc2)cc2ccc(C(=N)N)cc21` [Compound 39, 1ethyl-2-[2-[(S)-1-[(R)-2-(carbamoylmethylamino)-2-phenylacetyl]pyrrolidin-2-yl]ethyl]indole-6-carboxamidine], the IC50 came out at 6.91 nM.

As to `CCn1c(CC[C@@H]2CCCN2C(=O)C(CC(=O)O)NC2CC2)cc2ccc(C(=N)N)cc21` (stereo partly drawn) [Compound 73, 4-[(S)-2-[2-(6-amidino-1-ethylindol-2-yl)ethyl]pyrrolidinyl]-3-cyclopropylamino-4-oxobutanoic acid], the IC50 amounted to 33.2 nM.

Compound `CC(=O)N1CCC[C@@H]1C(=O)N1CCC[C@H]1CCc1cc2ccc(C(=N)N)cc2n1CC(N)=O` [Compound 224, 2-[2-[(S)-1-[((R)-1-acetylpyrrolidin-2-yl)carbonyl]pyrrolidin-2-yl]ethyl]-1-(carbamoylmethyl)indole-6-carboxamidine] came in with an IC50 of 24.1 nM.

In the case of `CCOC(=O)CCC(=O)N1CCC[C@@H]1C(=O)N1CCC[C@H]1CCc1cc2ccc(C(=N)N)cc2n1CC` [Compound 176, ethyl 4-[(R)-2-[[(S)-2-[2-(6-amidino-1-ethylindol-2-yl)ethyl]pyrrolidinyl]carbonyl]pyrrolidinyl]-4-oxobutanoate], the “Selectivity (trypsin/thrombin)” value came out at 20.7 and the concentration for half-maximal inhibition (IC50) turned out to be 21.7 nM.

With `CCn1c(CC[C@@H]2CCCN2C(=O)CC2CCCC2)cc2ccc(C(=N)N)cc21` [Compound 43, 1ethyl-2-[2-[(S)-1-(2-cyclopentylacetyl)pyrrolidin-2-yl]ethyl]indole-6-carboxamidine], the “Selectivity (trypsin/thrombin)” value was 40.3 and the IC50 turned out to be 9.96 nM.

Turning to `CCOC(=O)C[C@H](N)C(=O)N1CCC[C@@H]1C(=O)N1CCC[C@H]1CCc1cc2ccc(C(=N)N)cc2n1CC` [Compound 147, ethyl 4-[(R)-2-[[(S)-2-[2-(6-amidino-1-ethylindol-2-yl)ethyl]pyrrolidinyl]carbonyl]pyrrolidinyl]-(S)-3-amino-4-oxobutanoate], inhibition was half-maximal at 25.5 nM (IC50).

`CCOC(=O)Cn1c(CC[C@@H]2CCCN2C(=O)[C@H]2CCCN2C(C)=O)cc2ccc(C(=N)N)cc21` [Compound 222, ethyl 2-[2-[2-[(S)-1-[((R)-1-acetylpyrrolidin-2-yl)carbonyl]pyrrolidin-2-yl]ethyl]-6-amidinoindolyl]acetate] yielded a concentration for half-maximal inhibition (IC50) of 11.4 nM.

Take `CCOC(=O)C1CCCN1CC(=O)N1CCC[C@H]1CCc1cc2ccc(C(=N)N)cc2n1CC` (stereo partly drawn) [Compound 196, ethyl 1-[2-[(S)-2-[2-(6-amidino-1-ethylindol-2-yl)ethyl]pyrrolidinyl]-2-oxoethyl]pyrrolidine-2-carboxylate]: the “Selectivity (trypsin/thrombin)” value turned out to be 14.4 and the IC50 is 37.2 nM.

`CCn1c(CC[C@@H]2CCCN2C(=O)[C@H]2CCCN2C(=O)C2CCNCC2)cc2ccc(C(=N)N)cc21` [Compound 169, 1-ethyl-2-[2-[(S)-1-[[(R)-1-[(4-piperidinyl)carbonyl]pyrrolidin-2-yl]carbonyl]pyrrolidin-2-yl]ethyl]indole-6-carboxamidine] registered an IC50 of 30.2 nM.

For the compound `CCn1c(CC[C@@H]2CCCN2C(=O)CNC2CC2)cc2ccc(C(=N)N)cc21` [Compound 57, 1-ethyl-2-[2-[(S)-1-(2-cyclopropylaminoacetyl)pyrrolidin-2-yl]ethyl]indole-6-carboxamidine], the midpoint of inhibition, the IC50, lay at 7.73 nM.

`N=C(N)c1ccc2cc(CC[C@H]3CCCN3C(=O)Cc3ccccc3)ccc2c1` [Compound 244, 6-[2-[(S)-1-(2-phenylacetyl)pyrrolidine-2-yl]ethyl]naphthalene-2-carboxamidine] displayed an IC50 of 53.6 nM.

Compound `CCn1c(CC[C@@H]2CCCN2C(=O)[C@H]2CCCN2C(=O)CNC)cc2ccc(C(=N)N)cc21` [Compound 142, 1-ethyl-2-[2-[(S)-1-[[(R)-1-[2-(methylamino)acetyl]pyrrolidin-2-yl]carbonyl]pyrrolidin-2-yl]ethyl]indole-6-carboxamidine] showed an IC50 of 33.1 nM.

`CCOC(=O)CCCCN1CCC[C@@H]1C(=O)N1CCC[C@H]1CCc1cc2ccc(C(=N)N)cc2n1CC` [Compound 128, ethyl 5-[(R)-2-[[(S)-2-[2-(6-amidino-1-ethylindol-2-yl)ethyl]pyrrolidinyl]carbonyl]pyrrolidinyl]pentanoate] yielded an IC50 of 26.2 nM.

With `CCOC(=O)C(CC)N1CCC[C@@H]1C(=O)N1CCC[C@H]1CCc1cc2ccc(C(=N)N)cc2n1CC` (stereo partly drawn) [Compound 110, ethyl 2-[(R)-2-[[(S)-2-[2-(6-amidino-1-ethylindol-2-yl)ethyl]pyrrolidinyl]carbonyl]pyrrolidinyl]butanoate], the “Selectivity (trypsin/thrombin)” value worked out at 38.6 and the IC50 was determined as 37.7 nM.

The compound `CCC(N)C(=O)N1CCC[C@@H]1C(=O)N1CCC[C@H]1CCc1cc2ccc(C(=N)N)cc2n1CC` (stereo partly drawn) [Compound 144, 1-ethyl-2-[2-[(S)-1-[[(R)-1-(2-aminobutanoyl)pyrrolidin-2-yl]carbonyl]pyrrolidin-2-yl]ethyl]indole-6-carboxamidine] displayed an IC50 of 25.3 nM.

For the compound `CCn1c(CC[C@@H]2CCCN2C(=O)[C@H]2CCCN2C(=O)CCNS(C)(=O)=O)cc2ccc(C(=N)N)cc21` [Compound 158, 1-ethyl-2-[2-[(S)-1-[[(R)-1-[3-[(methanesulfonyl)amino]propanoyl]pyrrolidin-2-yl]carbonyl]pyrrolidin-2-yl]ethyl]indole-6-carboxamidine], the IC50 came out at 5.5 nM.

For `CCCC(CCC)C(=O)N1CCC[C@@H]1C(=O)N1CCC[C@H]1CCc1cc2ccc(C(=N)N)cc2n1CC` [Compound 173, 1-ethyl-2-[2-[(S)-1-[[(R)-1-(2-propylpentanoyl)pyrrolidin-2-yl]carbonyl]pyrrolidin-2-yl]ethyl]indole-6-carboxamidine], half-maximal inhibition (IC50) was put at 34.6 nM.

On to `CCn1c(CC[C@@H]2CCCN2C(=O)CC2CCCCC2)cc2ccc(C(=N)N)cc21` [Compound 46, 1ethyl-2-[2-[(S)-1-(2-cyclohexylacetyl)pyrrolidin-2-yl]ethyl]indole-6-carboxamidine], for which the IC50 amounted to 28.9 nM.

Consider `CCOC(=O)CN1CCC[C@@H]1C(=O)N1CCC[C@H]1CCc1cc2ccc(C(=N)N)cc2n1C` [Compound 84, ethyl 2-[(R)-2-[[(S)-2-[2-(6-amidino-1-methylindol-2-yl)ethyl]pyrrolidinyl]carbonyl]pyrrolidinyl]acetate], for which the “Selectivity (trypsin/thrombin)” value is listed as 87.0 and the IC50 stood at 51.6 nM.
